Laboratory results: patent US10913738B2 (BRISTOL-MYERS SQUIBB COMPANY, priority 2017, dated 2021)
pIC50: −log10 of the molar value. Like-named read-outs stand apart in the source and are kept apart here.

Tests used:
[1] = molecular target: T1, His-GST-TVMV-hRIPK1(1-324) (Homo sapiens, UniProt Q13546); test: RIPK1 HTRF Binding Assay
T1 construct: The coding region of human RIPK1(1-324) flanked by NdeI site at 5′ end; made in house; host or cells: Spodoptera frugiperda (Sf9) insect cells, baculovirus
T1 sequence (Q13546 1-324): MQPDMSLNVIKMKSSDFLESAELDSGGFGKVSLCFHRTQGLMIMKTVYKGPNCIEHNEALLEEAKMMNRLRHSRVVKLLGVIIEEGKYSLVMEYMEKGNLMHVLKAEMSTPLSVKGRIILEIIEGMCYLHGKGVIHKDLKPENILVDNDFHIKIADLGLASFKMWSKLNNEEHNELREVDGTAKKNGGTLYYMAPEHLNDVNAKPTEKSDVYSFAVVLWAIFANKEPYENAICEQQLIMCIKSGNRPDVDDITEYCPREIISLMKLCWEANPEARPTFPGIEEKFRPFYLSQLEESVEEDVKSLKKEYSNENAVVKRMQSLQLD

[2] = system: MLKL phosphorylation in HT29-L23 human colorectal adenocarcinoma cells; test: MLKL Phosphorylation High-Content Assay; type: cell-based; settings: Homo sapiens
Outline: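 IC50 and Ymax obtained by 4-parameter logistic fitting of MLKL phosphorylation, measured as mean circ-ring average intensity ratio from high-content images. Staining used an anti-phospho-S358 MLKL antibody overnight at 4° C., following six-hour cell incubation at 37° C.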

[3] = x marks IC50 class <20 nM, read-out: RIPK1 HTRF binding <20 nM
[4] = x marks IC50 class <20 nM, read-out: pMLKL cell activity <20 nM
[5] = x marks IC50 class 20-200 nM, read-out: RIPK1 HTRF binding 20-200 nM
[6] = x marks IC50 class 20-200 nM, read-out: pMLKL cell activity 20-200 nM
[7] = x marks IC50 class >200 nM, read-out: pMLKL cell activity >200 nM

| Structure (SMILES) | pIC50 [1, 3] | pIC50 [1, 5] | pIC50 [2, 6] | pIC50 [2, 7] | further results |
| --- | --- | --- | --- | --- | --- |
| COc1ncc(-c2ccn3nc(N)nc3c2)cc1C(=O)NCc1ccccc1Oc1ccc(F)cc1 [Example 110, 5-{2-amino-[1,2,4]triazolo[1,5-a]pyridin-7-yl}-N-{[2-(4-fluorophenoxy)phenyl]methyl}-2-methoxypyridine-3-carboxamide] | > 7.70 |  |  |  | pIC50 [2, 4]: > 7.70 |
| COc1ncc(-c2ccn3nc(N)nc3c2)cc1C(=O)N1CCCC(C(=O)Cc2ccccc2)C1 (centres unmarked) [Example 427, 1-(1-(5-(2-amino-[1,2,4]triazolo[1,5-a]pyridin-7-yl)-2-methoxynicotinoyl)piperidin-3-yl)-2-phenylethan-1-one] |  | 6.70 to 7.70 | 6.70 to 7.70 |  |  |
| Cc1nc(C)c(-c2ccn3nc(N)nc3c2)cc1C(=O)NCc1cccc(OCC2CC2)c1 [Example 176, 5-{2-amino-[1,2,4]triazolo[1,5-a]pyridin-7-yl}-N-{[3-(cyclopropylmethoxy)phenyl]methyl]-2,6-dimethylpyridine-3-carboxamide] |  | 6.70 to 7.70 |  | < 6.70 |  |
| CCc1ncc(-c2ccn3nc(N)nc3c2)cc1C(=O)N[C@@H](C)c1cc(OC(F)(F)F)ccc1F [Example 321, (S)-5-(2-amino-[1,2,4]triazolo[1,5-a]pyridin-7-yl)-2-ethyl-N-(1-(2-fluoro-5-(trifluoromethoxy)phenyl)ethyl)nicotinamide] |  | 6.70 to 7.70 | 6.70 to 7.70 |  |  |
| CCOc1ncc(-c2ccn3nc(N)nc3c2)cc1C(=O)NCc1cc(F)ccc1OC1CCCC1 [Example 264, 5-{2-amino-[1,2,4]triazolo[1,5-a]pyridin-7-yl}-N-{[2-(cyclopentyloxy)-5-fluorophenyl]methyl}-2-ethoxypyridine-3-carboxamide] | > 7.70 |  |  |  | pIC50 [2, 4]: > 7.70 |
| Cc1ncc(-c2ccn3nc(N)nc3c2)cc1C(=O)NCc1cccc(OCC2CC2)c1 [Example 243, 5-{2-amino-[1,2,4]triazolo[1,5-a]pyridin-7-yl}-N-{[3-(cyclopropylmethoxy)phenyl]methyl}-2-methylpyridine-3-carboxamide] |  | 6.70 to 7.70 |  | < 6.70 |  |
| COc1ncc(-c2ccn3nc(N)nc3c2)cc1C(=O)NCc1ccccc1OC(C)C [Example 144, 5-{2-amino-[1,2,4]triazolo[1,5-a]pyridin-7-yl}-2-methoxy-N-{[2-(propan-2-yloxy)phenyl]methyl}pyridine-3-carboxamide] | > 7.70 |  | 6.70 to 7.70 |  |  |
| COc1ncc(-c2ccn3nc(N)nc3c2)cc1C(=O)NCc1cccc(F)c1CN1CCOCC1 [Example 365, 5-(2-amino-[1,2,4]triazolo[1,5-a]pyridin-7-yl)-N-(3-fluoro-2-(morpholinomethyl)benzyl)-2-methoxynicotinamide] |  | 6.70 to 7.70 |  | < 6.70 |  |
| COc1ncc(-c2ccn3nc(N)nc3c2)cc1C(=O)NCc1ccc(F)cc1OC1CCCC1 [Example 51, 5-{2-Amino-[1,2,4]triazolo[1,5-a]pyridin-7-yl}-N-{[2-(cyclopentyloxy)-4-fluorophenyl]methyl}-2-methoxypyridine-3-carboxamide] | > 7.70 |  | 6.70 to 7.70 |  |  |
| [2H]C([2H])([2H])Oc1ncc(-c2ccn3nc(N)nc3c2)cc1C(=O)NCc1ccccc1OC(F)(F)F [Example 90, 5-{2-amino-[1,2,4]triazolo[1,5-a]pyridin-7-yl}-2-(deutero)methoxy-N-{[2-(trifluoromethoxy)phenyl]methyl}pyridine-3-carboxamide] | > 7.70 |  | 6.70 to 7.70 |  |  |
| COc1nnc(-c2ccn3nc(N)nc3c2)cc1C(=O)NCCC(C)c1ccccc1 (centres unmarked) [Example 387, 6-(2-amino-[1,2,4]triazolo[1,5-a]pyridin-7-yl)-3-methoxy-N-(3-phenylbutyl)pyridazine-4-carboxamide] |  | 6.70 to 7.70 |  | < 6.70 |  |
| Cc1ncc(-c2ccn3nc(N)nc3c2)cc1C(=O)NCC[C@@H](O)c1ccc(Cl)cc1 [Example 224] | > 7.70 |  | 6.70 to 7.70 |  |  |
| Nc1nc2cc(-c3cnc(Cl)c(C(=O)NCc4cc(OC(F)(F)F)ccc4F)c3)ccn2n1 [Example 166, 5-{2-amino-[1,2,4]triazolo[1,5-a]pyridin-7-y1}-2-chloro-N-{[2-fluoro-5-(trifluoromethoxy)phenyl]methyl}pyridine-3-carboxamide] |  | 6.70 to 7.70 |  | < 6.70 |  |
| Cc1nc(C)c(-c2ccn3nc(N)nc3c2)cc1C(=O)NCc1cc(F)ccc1OCC(F)(F)F [Example 292, 5-(2-amino-[1,2,4]triazolo[1,5-a]pyridin-7-yl)-N-(5-fluoro-2-(2,2,2-trifluoroethoxy)benzyl)-2,6-dimethylnicotinamide] |  | 6.70 to 7.70 | 6.70 to 7.70 |  |  |
| CCOc1ncc(-c2ccn3nc(N)nc3c2)cc1C(=O)NCC[C@@H](O)c1ccc(Cl)cc1 [Example 276, 5-{2-amino-[1,2,4]triazolo[1,5-a]pyridin-7-yl}-N-[(3R)-3-(4-chlorophenyl)-3-hydroxypropyl]-2-ethoxypyridine-3-carboxamide] |  |  |  | < 6.70 | pIC50 ([1]; x marks IC50 class >200 nM, read-out: RIPK1 HTRF binding >200 nM): < 6.70 |
| COc1cnc(-c2ccn3nc(N)nc3c2)cc1C(=O)NCCC(C)c1ccccc1 (centres unmarked) [Example 390, 2-(2-amino-[1,2,4]triazolo[1,5-a]pyridin-7-yl)-5-methoxy-N-(3-phenylbutyl)isonicotinamide] |  | 6.70 to 7.70 |  | < 6.70 |  |
| COc1ncc(-c2ccn3nc(N)nc3c2)cc1C(=O)NCc1ccccc1C(=O)N1CCC(F)(F)C1 [Example 377, 5-(2-amino-[1,2,4]triazolo[1,5-a]pyridin-7-yl)-N-(2-(3,3-difluoropyrrolidine-1-carbonyl)benzyl)-2-methoxynicotinamide] |  | 6.70 to 7.70 | 6.70 to 7.70 |  |  |
| COc1nc(C)c(-c2ccn3nc(N)nc3c2)cc1C(=O)NCc1cc(C(F)(F)F)cc(Cl)c1F [Example 336, 5-(2-amino-[1,2,4]triazolo[1,5-a]pyridin-7-yl)-N-(3-chloro-2-fluoro-5-(trifluoromethyl)benzyl)-2-methoxy-6-methylnicotinamide] |  | 6.70 to 7.70 | 6.70 to 7.70 |  |  |
| Cc1ncc(-c2ccn3nc(N)nc3c2)cc1C(=O)NC(C)c1cc(OC(F)(F)F)ccc1F (centres unmarked) [Example 255, 5-{2-amino-[1,2,4]triazolo[1,5-a]pyridin-7-yl}-N-{1-[2-fluoro-5-(trifluoromethoxy)phenyl]ethyl}-2-methylpyridine-3-carboxamide] | > 7.70 |  | 6.70 to 7.70 |  |  |
| [2H]C([2H])([2H])Oc1ncc(-c2ccn3nc(N)nc3c2)cc1C(=O)NCc1cc(C(F)(F)F)ccc1F [Example 91, 5-{2-amino-[1,2,4]triazolo[1,5-a]pyridin-7-yl}-N-{[2-fluoro-5-(trifluoromethyl)phenyl]methyl}-2-(deutero)methoxypyridine-3-carboxamide] |  | 6.70 to 7.70 | 6.70 to 7.70 |  |  |
| COc1ncc(-c2ccn3nc(N)nc3c2)cc1C(=O)NCc1ccc(F)cc1OC(=O)N(C)C [Example 103] |  | 6.70 to 7.70 |  | < 6.70 |  |
| Nc1nc2cc(-c3cncc(C(=O)NCc4ccccc4Sc4ccccc4CO)c3)ccn2n1 [Example 59, 5-{2-Amino-[1,2,4]triazolo[1,5-a]pyridin-7-yl}-N-{[(2-[2-(hydroxymethyl)phenyl]sulfanyl}phenyl)methyl]pyridine-3-carboxamide] | > 7.70 |  | 6.70 to 7.70 |  |  |
| Cc1nc(C)c(-c2ccn3nc(N)nc3c2)cc1C(=O)NCc1ccccc1OCC1CC1 [Example 185, 5-{2-amino-[1,2,4]triazolo[1,5-a]pyridin-7-yl}-N-{[2-(cyclopropylmethoxy)phenyl]methyl}-2,6-dimethylpyridine-3-carboxamide] | > 7.70 |  |  |  | pIC50 [2, 4]: > 7.70 |
| COc1nc(C)c(-c2ccn3nc(N)nc3c2)cc1C(=O)NCc1cccnc1OC1CCCC1 [Example 34, 5-{2-Amino-[1,2,4]triazolo[1,5-a]pyridin-7-yl}-N-{[2-(cyclopentyloxy)pyridin-3-yl]methyl}-2-methoxy-6-methylpyridine-3-carboxamide] | > 7.70 |  |  |  | pIC50 [2, 4]: > 7.70 |
| CCc1ncc(-c2ccn3nc(N)nc3c2)cc1C(=O)N[C@H](C)c1cc(OC(F)(F)F)ccc1F [Example 320, (R)-5-(2-amino-[1,2,4]triazolo[1,5-a]pyridin-7-yl)-2-ethyl-N-(1-(2-fluoro-5-(trifluoromethoxy)phenyl)ethyl)nicotinamide] |  | 6.70 to 7.70 |  |  | pIC50 [2, 4]: > 7.70 |
| COc1ncc(-c2ccn3nc(N)nc3c2)cc1C(=O)NCc1ccccc1OC1CCC(C)C1 (centres unmarked) [Example 32, 5-{2-Amino-[1,2,4]triazolo[1,5-a]pyridin-7-yl}-2-methoxy-N-({2-[(3-methylcyclopentyl)oxy]phenyl}methyl)pyridine-3-carboxamide] | > 7.70 |  |  |  | pIC50 [2, 4]: > 7.70 |
| Cc1ncc(-c2ccn3nc(N)nc3c2)cc1C(=O)NCc1cc(F)cc(F)c1OCC1CCCC1 [Example 232] | > 7.70 |  | 6.70 to 7.70 |  |  |
| COc1nc(C)c(-c2ccn3nc(N)nc3c2)cc1C(=O)NCc1ncccc1OCC(F)(F)F [Example 366, 5-(2-amino-[1,2,4]triazolo[1,5-a]pyridin-7-yl)-2-methoxy-6-methyl-N-((3-(2,2,2-trifluoroethoxy)pyridin-2-yl)methyl)nicotinamide] | > 7.70 |  |  | < 6.70 |  |
